Test results from patent publication US20090318491A1 (priority 2006, published 2009).

Tests used:
α3β4* nAChR = molecular target: T1, α3β4* nAChR (Bos taurus, UniProt Q07263+Q8SPU6); experiment: biochemical; assay type: binding, calf
T1 construct: 100 μL of the calf adrenal membrane protein fraction (60-70 μg); from tissue; host or cells: calf adrenals, membrane fraction
Procedure: Preparation of Calf Adrenals
Frozen calf adrenals (−80° C.) were placed on ice for 30-60 min and allowed to thaw slowly before they were cut into small pieces. After determination of the wet weight (4-6 g), the tissue was homogenised in HSS-buffer (Ultraturrax at 750 rpm). The homogenate was centrifuged (30,000×g, 10 min, 4° C.), the pellets collected and washed. This procedure was repeated five times. The buffer volume used to re-suspend the pellets was calculated on the basis of the wet weight in a ratio 1:6.5.
The prepared tissues were stored in aliquots at −80° C. One hour before the experiments the tissues were slowly thawed, homogenised in HSS-buffer and centrifuged (25,000×g, 20 min, 4° C.). The pellets were re-suspended in fresh HSS-buffer and used for radioligand binding assays.
Competition Assay Using (±)-[^3H]Epibatidine ([^3H]Epi) and Calf Adrenals Membrane Fraction (α3β4*nAChR)
Each assay sample, with a total volume of 500 μL contained 200 μL of the test compound, 100 μL of (±)-[^3H]epibatidine, 100 μL of the calf adrenal membrane protein fraction (60-70 μg) and 100 μM of HSS-buffer. Non-specific binding was determined in the presence of 300 μM (−)-nicotine tartrate salt. The samples were homogenised and incubated for 90 min at 22° C. The incubation was terminated by vacuum filtration through glass fibre filters presoaked in 1% poly(ethyleneimine). The filters were rinsed three times with TRIS-buffer, punched out and transferred into 4 mL scintillation vials. The scintillation vials were filled with scintillation cocktail (2 mL) and the radioactivity was measured using a liquid scintillation counter.

(α1)2β1γδ nAChR = molecular target: T2, (α1)2β1γδ nAChR (Tetronarce californica, UniProt P02710+P02714+P02718); experiment: biochemical; assay type: binding, Torpedo californica
T2 construct: 100 μL of the Torpedo californica electroplax fraction (60-70 μg); from tissue; host or cells: Torpedo californica electric organ (electroplax) membranes
Procedure: Preparation of Torpedo californica Electroplax
Frozen samples of Torpedo californica electric organ (−80° C.) were placed on ice for 30-60 min and allowed to thaw slowly before the membrane preparation. The tissue was homogenised in an ice-cold HSS-buffer (Ultraturrax at 750 rpm) and centrifuged (30,000×g, 10 min, 4° C.). The pellets were collected, washed four times with HSS-buffer through re-homogenization and centrifugation at the same settings. The remaining pellets were collected, re-suspended in HSS and stored in aliquots at −80° C.
One hour before the experiments the tissues were slowly thawed, homogenised in HSS-buffer and centrifuged (25,000×g, 20 min, 4° C.). The pellets were re-suspended in fresh HSS-buffer and used for radioligand binding assays.
Competition Assay Using (±)-[^3H]Epibatidine ([^3H]Epi) and Torpedo californica Electroplax ((α1)2β1γδ nAChR)
(§1) A dilution row of 6-9 concentrations of the test compound was prepared. Each assay sample, with a total volume of 500 μL contained 200 μL of the test compound, 100 μL of (±)-[^3H]epibatidine and 100 μL of the Torpedo californica electroplax fraction (60-70 μg). Non-specific binding was determined in the presence of 300 μM (−)-nicotine tartrate salt. The samples were homogenised and incubated for 90 min at 22° C. The incubation was terminated by vacuum filtration through glass fibre filters pre-soaked in 1% poly(ethyleneimine). The filters were rinsed three times with TRIS-buffer, punched out and transferred into 4 mL scintillation vials. The scintillation vials were filled with scintillation cocktail (2 mL) and the radioactivity was measured using a liquid scintillation counter.
Assays were carried out in duplicates, triplicate or quadruplicates.
(§2) Biological evaluation of the compounds on various nicotinic actylcholine receptors (nAChRs) was conducted with cells described below. […] Functional agonist activity of the cytisines in cells using a fluorescence assay sensitive to changes in cytosolic calcium.

α7* nAChR = molecular target: T3, α7* nAChR (Rattus norvegicus, UniProt Q05941); experiment: Competition assay using [3H]methyllycaconitine and rat brain P2-fraction; assay type: binding; conditions: preliminary results; read-out: α7* [3H]MLA rat brain Ki
T3 construct: Frozen rat brains were thawed slowly before the preparation of the P2 rat brain membrane fraction; from tissue; host or cells: rat brain P2 membrane fraction
Procedure: (§3) Preparation of Rat Brains
(§4) Frozen rat brains were thawed slowly before the preparation of the P2 rat brain membrane fraction (30-60 min on ice, afterwards at room temperature). […] After the determination of the wet weight (1.32 g on average), the brains were pressed into a pulp using a syringe and homogenised in saccharose buffer with a glass teflon homogenizator (Potter, 10 seconds). The tissue was then centrifuged (1,000×g, 20 min, 4° C.), the supernatant (S1) aspirated with a Pasteur pipette and stored on ice. The P1 pellet was re-suspended in saccharose buffer and the centrifugation was repeated. The supernatant S1′ was collected and added to the supernatant S1. The combined supernatants were centrifuged (25,000×g, 20 min, 4° C.), the supernatant S2 was removed and the pellet P2 collected and diluted with HSS-buffer. The buffer volume added was calculated on the basis of the wet weight in a ratio 1:2.
(§5) The final pellet was stored in aliquots at −80° C. On the day of the experiment, the P2 membrane fraction was thawed, diluted with HSS-buffer (30-fold volume), homogenised and centrifuged (35,000×g, 10 min, 4° C.). The collected pellet was suspended in HSS-buffer and used in the radioligand binding experiments.
Competition Assay Using [^3H]Methyllycaconitine ([^3H]MLA) and Rat Brain P2-Fraction (α7*nAChR)
A dilution row of 6-9 concentrations of the test compound was prepared. Each assay sample, with a total volume of 250 μL contained 50 μL of the test compound, 100 μL of [^3H]MLA and 100 μL of the P2-membrane protein fraction (60-70 μg). Non-specific binding was determined in the presence of 1 μM MLA. The samples were homogenised and incubated for 120 min at 22° C. The incubation was terminated by vacuum filtration through glass fibre filters pre-soaked in 1% poly(ethyleneimine). The filters were rinsed three times with TRIS-buffer, punched out and transferred into 4 mL scintillation vials. The scintillation vials were filled with scintillation cocktail (2 mL) and the radioactivity was measured using a liquid scintillation counter.
Assays were carried out in duplicates, triplicates or quadruplicates.

α4β2* nAChR = molecular target: T4, α4β2* nAChR (Rattus norvegicus, UniProt P09483+P12390); experiment: biochemical; assay type: binding
T4 construct: Frozen rat brains were thawed slowly before the preparation of the P2 rat brain membrane fraction; from tissue; host or cells: rat brain (without cerebellum and medulla), P2 membrane fraction
Procedure: as §3, §4, §5
Competition Assay Using (±)-[^3H]Epibatidine ([^3H]Epi) and Rat Brain P2-Fraction (α4β2*nAChR)
as §1, with “contained 100 μL of the membrane protein (60 μg), 100 μL of (±)-[^3H]epibatidine (0.5 nM), 100 μL of HSS-buffer and” for “contained”, “test compound” for “test compound, 100 μL of (±)-[^3H]epibatidine and 100 μL of the Torpedo californica electroplax fraction (60-70 μg).”, “The filter” for “The filters”
Assays were carried out in duplicate, triplicates or quadruplicates.
as §2

T3 sequence (Q05941 23-502): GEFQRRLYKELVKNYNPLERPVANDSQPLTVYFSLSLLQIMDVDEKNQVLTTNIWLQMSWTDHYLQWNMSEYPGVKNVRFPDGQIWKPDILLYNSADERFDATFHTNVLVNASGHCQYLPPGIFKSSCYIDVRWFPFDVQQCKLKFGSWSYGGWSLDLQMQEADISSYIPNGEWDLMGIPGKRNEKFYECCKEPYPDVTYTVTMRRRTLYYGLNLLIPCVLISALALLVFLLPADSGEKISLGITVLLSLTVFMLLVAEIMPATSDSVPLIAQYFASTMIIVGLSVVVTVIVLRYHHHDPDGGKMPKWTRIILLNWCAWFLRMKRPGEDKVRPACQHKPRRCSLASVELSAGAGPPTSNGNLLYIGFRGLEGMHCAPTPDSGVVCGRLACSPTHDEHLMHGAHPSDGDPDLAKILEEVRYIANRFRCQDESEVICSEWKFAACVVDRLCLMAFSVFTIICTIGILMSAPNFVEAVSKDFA
T1 sequence (Q07263 22-495): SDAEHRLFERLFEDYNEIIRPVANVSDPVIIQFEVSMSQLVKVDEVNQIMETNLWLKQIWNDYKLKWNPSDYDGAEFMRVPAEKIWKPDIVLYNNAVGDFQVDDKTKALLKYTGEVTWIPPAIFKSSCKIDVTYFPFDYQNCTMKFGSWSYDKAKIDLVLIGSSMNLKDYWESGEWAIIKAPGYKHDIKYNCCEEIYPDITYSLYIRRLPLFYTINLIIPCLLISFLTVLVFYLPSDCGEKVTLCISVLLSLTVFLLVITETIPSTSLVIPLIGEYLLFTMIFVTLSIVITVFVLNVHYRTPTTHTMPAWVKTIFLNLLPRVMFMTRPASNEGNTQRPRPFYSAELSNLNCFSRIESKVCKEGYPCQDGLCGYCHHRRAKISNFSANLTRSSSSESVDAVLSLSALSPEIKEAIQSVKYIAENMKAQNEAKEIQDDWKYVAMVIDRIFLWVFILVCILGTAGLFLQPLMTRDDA
T1 sequence (Q8SPU6 20-496): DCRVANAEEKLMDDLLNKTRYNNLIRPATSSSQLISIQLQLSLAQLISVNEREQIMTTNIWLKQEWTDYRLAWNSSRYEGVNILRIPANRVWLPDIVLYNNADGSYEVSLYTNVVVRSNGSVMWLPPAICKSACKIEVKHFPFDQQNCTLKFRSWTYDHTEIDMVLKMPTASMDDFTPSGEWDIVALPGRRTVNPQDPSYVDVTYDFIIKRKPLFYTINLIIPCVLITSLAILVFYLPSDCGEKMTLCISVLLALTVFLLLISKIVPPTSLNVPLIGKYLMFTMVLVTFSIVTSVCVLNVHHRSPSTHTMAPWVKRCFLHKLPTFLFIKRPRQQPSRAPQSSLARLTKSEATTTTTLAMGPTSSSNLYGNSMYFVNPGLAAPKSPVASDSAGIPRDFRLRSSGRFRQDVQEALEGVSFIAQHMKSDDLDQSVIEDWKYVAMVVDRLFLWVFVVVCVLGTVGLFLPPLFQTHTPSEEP
T2 sequence (P02710 25-461): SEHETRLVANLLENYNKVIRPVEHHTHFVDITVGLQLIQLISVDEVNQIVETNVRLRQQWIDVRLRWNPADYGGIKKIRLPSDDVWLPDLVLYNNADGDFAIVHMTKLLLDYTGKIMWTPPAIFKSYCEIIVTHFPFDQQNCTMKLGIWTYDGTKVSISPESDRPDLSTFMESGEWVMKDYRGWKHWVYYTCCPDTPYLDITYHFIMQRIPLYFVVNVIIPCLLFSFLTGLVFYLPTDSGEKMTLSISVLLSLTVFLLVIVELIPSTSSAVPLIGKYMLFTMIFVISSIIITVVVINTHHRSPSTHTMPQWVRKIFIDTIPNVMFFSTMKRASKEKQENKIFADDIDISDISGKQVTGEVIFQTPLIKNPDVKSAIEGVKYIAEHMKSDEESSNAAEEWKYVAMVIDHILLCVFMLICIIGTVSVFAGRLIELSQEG
T2 sequence (P02712 25-493, further chain): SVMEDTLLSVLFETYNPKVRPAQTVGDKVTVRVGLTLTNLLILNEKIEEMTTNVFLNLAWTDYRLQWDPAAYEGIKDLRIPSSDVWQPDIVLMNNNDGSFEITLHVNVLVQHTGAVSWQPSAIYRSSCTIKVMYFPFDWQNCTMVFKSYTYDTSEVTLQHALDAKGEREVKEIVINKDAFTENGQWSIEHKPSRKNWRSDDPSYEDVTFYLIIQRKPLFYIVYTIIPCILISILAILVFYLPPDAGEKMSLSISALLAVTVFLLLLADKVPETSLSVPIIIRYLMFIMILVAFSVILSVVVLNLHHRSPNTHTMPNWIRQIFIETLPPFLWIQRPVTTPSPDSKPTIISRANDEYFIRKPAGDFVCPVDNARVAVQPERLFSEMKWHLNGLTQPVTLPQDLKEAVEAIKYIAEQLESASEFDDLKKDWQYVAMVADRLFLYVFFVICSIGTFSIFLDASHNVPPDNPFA
T2 sequence (P02718 22-522): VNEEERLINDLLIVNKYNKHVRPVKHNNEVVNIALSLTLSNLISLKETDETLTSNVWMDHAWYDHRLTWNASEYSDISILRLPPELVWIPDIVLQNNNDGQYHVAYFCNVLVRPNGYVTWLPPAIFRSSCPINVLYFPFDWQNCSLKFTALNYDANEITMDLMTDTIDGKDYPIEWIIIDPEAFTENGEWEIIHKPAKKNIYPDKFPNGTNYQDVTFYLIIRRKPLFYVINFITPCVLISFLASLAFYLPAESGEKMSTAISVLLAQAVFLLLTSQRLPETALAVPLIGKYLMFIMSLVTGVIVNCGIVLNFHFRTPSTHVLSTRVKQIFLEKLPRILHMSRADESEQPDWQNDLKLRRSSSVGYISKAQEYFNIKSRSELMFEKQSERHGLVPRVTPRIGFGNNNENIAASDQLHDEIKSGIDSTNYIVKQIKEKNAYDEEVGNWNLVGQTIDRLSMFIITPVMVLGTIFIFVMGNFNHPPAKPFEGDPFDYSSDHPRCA
T2 sequence (P02714 18-506): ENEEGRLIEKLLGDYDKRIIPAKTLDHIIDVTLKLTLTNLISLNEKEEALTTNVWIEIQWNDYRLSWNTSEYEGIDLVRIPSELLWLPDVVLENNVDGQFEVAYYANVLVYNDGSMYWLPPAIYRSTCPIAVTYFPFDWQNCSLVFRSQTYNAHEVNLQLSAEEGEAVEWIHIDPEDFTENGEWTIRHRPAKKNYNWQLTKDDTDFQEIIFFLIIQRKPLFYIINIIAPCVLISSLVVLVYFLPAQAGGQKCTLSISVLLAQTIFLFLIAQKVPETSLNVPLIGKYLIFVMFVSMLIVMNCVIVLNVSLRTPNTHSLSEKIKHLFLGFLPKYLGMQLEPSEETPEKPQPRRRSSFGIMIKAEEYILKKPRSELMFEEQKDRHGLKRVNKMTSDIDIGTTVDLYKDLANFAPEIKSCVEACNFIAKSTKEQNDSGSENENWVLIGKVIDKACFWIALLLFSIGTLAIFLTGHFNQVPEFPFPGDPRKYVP
T4 sequence (P12390 25-500): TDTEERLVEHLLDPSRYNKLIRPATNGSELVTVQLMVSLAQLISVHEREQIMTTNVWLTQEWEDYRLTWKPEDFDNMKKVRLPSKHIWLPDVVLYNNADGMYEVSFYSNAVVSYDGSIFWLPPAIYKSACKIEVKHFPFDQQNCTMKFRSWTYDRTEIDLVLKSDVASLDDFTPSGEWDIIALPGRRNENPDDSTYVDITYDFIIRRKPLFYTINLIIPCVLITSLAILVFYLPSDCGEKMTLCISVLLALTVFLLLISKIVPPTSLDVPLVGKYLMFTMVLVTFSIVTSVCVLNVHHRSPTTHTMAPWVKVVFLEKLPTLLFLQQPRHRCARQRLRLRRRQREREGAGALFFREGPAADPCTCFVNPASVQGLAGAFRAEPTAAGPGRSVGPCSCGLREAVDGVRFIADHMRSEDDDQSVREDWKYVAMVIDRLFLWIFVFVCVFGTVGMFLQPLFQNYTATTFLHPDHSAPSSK
T4 sequence (P09483 31-630): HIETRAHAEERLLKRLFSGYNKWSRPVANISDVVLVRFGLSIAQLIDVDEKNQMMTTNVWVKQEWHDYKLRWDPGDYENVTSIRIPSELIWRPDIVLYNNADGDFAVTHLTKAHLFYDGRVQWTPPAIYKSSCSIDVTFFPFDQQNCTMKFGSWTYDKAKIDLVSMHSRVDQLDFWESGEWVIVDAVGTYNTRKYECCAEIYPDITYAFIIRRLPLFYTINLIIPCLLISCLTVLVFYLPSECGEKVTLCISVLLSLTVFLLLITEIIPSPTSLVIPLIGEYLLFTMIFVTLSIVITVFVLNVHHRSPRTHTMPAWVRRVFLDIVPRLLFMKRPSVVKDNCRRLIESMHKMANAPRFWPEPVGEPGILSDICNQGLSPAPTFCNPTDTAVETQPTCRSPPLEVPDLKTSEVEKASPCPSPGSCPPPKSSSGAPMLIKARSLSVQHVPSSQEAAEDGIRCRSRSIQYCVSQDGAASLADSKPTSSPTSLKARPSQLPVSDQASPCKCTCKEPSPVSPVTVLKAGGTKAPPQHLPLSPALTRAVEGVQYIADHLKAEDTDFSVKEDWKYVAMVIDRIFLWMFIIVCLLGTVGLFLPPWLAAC

Row | Structure (SMILES) | Ki (α3β4* nAChR) | Ki ((α1)2β1γδ nAChR) | Ki (α7* nAChR) | Ki (α4β2* nAChR)
1 | O=c1c(-c2ccccc2)ccc2n1C[C@@H]1CNC[C@H]2C1 [93e, 3-Phenyl-cytisine] | > 10 µM | > 10 µM | – | –
2 | O=c1c(-c2cccc([N+](=O)[O-])c2)ccc2n1C[C@@H]1CNC[C@H]2C1 [94e, 3-(3′-Nitro-phenyl)-cytisine] | > 2 µM | > 10 µM | > 10 µM | 0.023 µM
3 | Cc1cccc(-c2ccc3n(c2=O)C[C@@H]2CNC[C@H]3C2)c1 [95e, 3-(3′-Methyl-phenyl)-cytisine] | > 10 µM | > 10 µM | > 10 µM | 0.028 µM
4 | O=c1c(-c2cccc(C(F)(F)F)c2)ccc2n1C[C@@H]1CNC[C@H]2C1 [96e, 3-(3′-Trifluoromethyl-phenyl)-cytisine] | 3.7 µM | > 10 µM | > 10 µM | 0.0083 µM
5 | O=c1c(-c2cccc(OC(F)(F)F)c2)ccc2n1C[C@@H]1CNC[C@H]2C1 [97e, 3-(3′-Trifluoromethoxy-phenyl)-cytisine] | > 10 µM | > 10 µM | > 10 µM | 0.067 µM
6 | O=c1c(-c2cccc(Cl)c2)ccc2n1C[C@@H]1CNC[C@H]2C1 [98e, 3-(3′-Chloro-phenyl)-cytisine] | > 10 µM | > 10 µM | > 10 µM | 0.199 µM
7 | O=c1c(-c2cccc(F)c2)ccc2n1C[C@@H]1CNC[C@H]2C1 [99e, 3-(3′-Fluoro-phenyl)-cytisine] | 1.2 µM | > 10 µM | > 10 µM | 0.0057 µM
8 | O=c1c(-c2cccc(-c3ccccc3)c2)ccc2n1C[C@@H]1CNC[C@H]2C1 [100e, 3-(Biphenyl-3′-yl)-cytisine] | > 10 µM | > 10 µM | > 10 µM | 0.2 µM
9 | O=c1ccc(-c2ccccc2)c2n1C[C@@H]1CNC[C@H]2C1 [103e, 5-Phenyl-cytisine] | > 10 µM | > 10 µM | > 10 µM | 0.045 µM
10 | O=c1ccc(-c2cccc([N+](=O)[O-])c2)c2n1C[C@@H]1CNC[C@H]2C1 [104e, 5-(3′-Nitro-phenyl)-cytisine] | 0.481 µM | > 10 µM | > 10 µM | 0.0037 µM
11 | Cc1cccc(-c2ccc(=O)n3c2[C@H]2CNC[C@H](C2)C3)c1 [105e, 5-(3′-Methyl-phenyl)-cytisine] | > 10 µM | > 10 µM | > 10 µM | 0.024 µM
12 | O=c1ccc(-c2cccc(C(F)(F)F)c2)c2n1C[C@@H]1CNC[C@H]2C1 [106e, 5-(3′-Trifluoromethyl-phenyl)-cytisine] | > 10 µM | > 10 µM | > 10 µM | 0.055 µM
13 | O=c1ccc(-c2cccc(OC(F)(F)F)c2)c2n1C[C@@H]1CNC[C@H]2C1 [107e, 5-(3′-Trifluoromethoxy-phenyl)-cytisine] | > 10 µM | > 10 µM | > 10 µM | 0.023 µM
14 | O=c1ccc(-c2cccc(Cl)c2)c2n1C[C@@H]1CNC[C@H]2C1 [108e, 5-(3′-Chloro-phenyl)-cytisine] | > 10 µM | > 10 µM | > 10 µM | 0.17 µM
15 | O=c1ccc(-c2cccc(F)c2)c2n1C[C@@H]1CNC[C@H]2C1 [109e, 5-(3′-Fluoro-phenyl)-cytisine] | > 2 µM | > 10 µM | > 10 µM | 0.3 µM
16 | O=c1ccc(-c2cccc(-c3ccccc3)c2)c2n1C[C@@H]1CNC[C@H]2C1 [110e, 5-(Biphenyl-3′-yl)-cytisine] | > 10 µM | > 10 µM | > 10 µM | 0.19 µM
17 | O=c1c(-c2ccc3[nH]ccc3c2)ccc2n1C[C@@H]1CNC[C@H]2C1 [117e, 3-(1H-Indol-5′-yl)-cytisine] | > 10 µM | > 10 µM | > 10 µM | 0.853 µM
18 | O=c1c(-c2ccc3c(c2)OCO3)ccc2n1C[C@@H]1CNC[C@H]2C1 [118e, 3-(3′,4′-Methylenedioxy-phenyl)-cytisine] | > 10 µM | > 10 µM | – | –
19 | O=c1c(-c2cccnc2)ccc2n1CC1CNCC2C1 (centres unmarked) [119e, 3-(Pyridin-3′-yl)-cytisine] | – | – | > 10 µM | –
20 | O=c1c(-c2ccncc2)ccc2n1C[C@@H]1CNC[C@H]2C1 [120e, 3-(Pyridin-4′-yl)-cytisine] | – | > 10 µM | – | –
21 | O=c1c(-c2cccc3cccnc23)ccc2n1C[C@@H]1CNC[C@H]2C1 [121e, 3-Quinolin-8′-yl-cytisine] | > 10 µM | > 10 µM | > 10 µM | 0.095 µM
22 | Cn1cc(-c2ccc3n(c2=O)CC2CNCC3C2)cn1 (centres unmarked) [122e, 3-(1-Methyl-1H-pyrazol-4′-yl)-cytisine] | 0.033 µM | > 5 µM | > 10 µM | 0.000177 µM
23 | O=c1ccc(-c2ccc3[nH]ccc3c2)c2n1C[C@@H]1CNC[C@H]2C1 [123e, (1H-Indol-5′-yl)-cytisine] | > 10 µM | > 10 µM | > 10 µM | 0.0204 µM
24 | O=c1ccc(-c2ccc3c(c2)OCO3)c2n1C[C@@H]1CNC[C@H]2C1 [124e, 5-(3′,4′-Methylenedioxy-phenyl)-cytisine] | > 10 µM | > 10 µM | > 10 µM | 0.096 µM
25 | O=c1ccc(-c2cccnc2)c2n1C[C@@H]1CNC[C@H]2C1 [125e, 5-(Pyridin-3′-yl)-cytisine] | 4.3 µM | > 10 µM | > 10 µM | 0.0109 µM
26 | Cn1cc(-c2ccc(=O)n3c2[C@H]2CNC[C@H](C2)C3)cn1 [126e, 5-(1-Methyl-1H-pyrazol-4′-yl)-cytisine] | 0.656 µM | > 10 µM | > 10 µM | 0.0022 µM
27 | O=c1c(-c2ccccc2)cc(Br)c2n1C[C@@H]1CNC[C@H]2C1 [128e, 5-Bromo-3-phenyl-cytisine] | > 5 µM | > 10 µM | > 10 µM | 0.131 µM
28 | O=c1c(-c2cccnc2)cc(Br)c2n1C[C@@H]1CNC[C@H]2C1 [129e, 5-Bromo-3-(pyridin-3′-yl)-cytisine] | > 2 µM | > 10 µM | > 10 µM | 0.092 µM
29 | O=c1c(-c2cccnc2)ccc2n1CC1CNCC2C1 (centres unmarked) [drawing 100] | – | > 10 µM | – | 0.00091 µM
